The values that follow come from patent US20100076015A1, “Aminopyridine Derivatives” (VANTIA LIMITED, priority 2008, published 2010).

For this assay, the target named is T1, Human KLK1 (Homo sapiens, UniProt P06870).
T1 construct: purchased Callbiochem (Calbiochem)
The experiment in a line: Determination of the IC50 for KLK1 (fluorogenic substrate H-DVal-Leu-Arg-AFC). The class given is biochemical. As to conditions: 37° C. The protocol:
Determination of the IC50 for KLK1
KLK1 inhibitory activity in vitro was determined using standard published methods (see e.g. Johansen et al., Int. J. Tiss. Reac. 1986, 8, 185; Shori et al., Biochem. Pharmacol., 1992, 43, 1209; Stürzebecher et al., Biol. Chem. Hoppe-Seyler, 1992, 373, 1025). Human KLK1 (Callbiochem) was incubated at 37° C. with the fluorogenic substrate H-DVal-Leu-Arg-AFC and various concentrations of the test compound. Residual enzyme activity (initial rate of reaction) was determined by measuring the change in optical absorbance at 410 nm and the IC50 value for the test compound was determined.

T1 sequence (P06870 25-262): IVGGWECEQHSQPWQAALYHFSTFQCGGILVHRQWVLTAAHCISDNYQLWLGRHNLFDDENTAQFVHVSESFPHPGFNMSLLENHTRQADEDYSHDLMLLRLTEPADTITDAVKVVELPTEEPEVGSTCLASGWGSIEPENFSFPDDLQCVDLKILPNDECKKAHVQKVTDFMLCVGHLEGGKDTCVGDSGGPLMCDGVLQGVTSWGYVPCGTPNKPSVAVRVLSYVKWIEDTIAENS

`CCN(CC)[C@@H](C)C(=O)N[C@@H](Cc1cccc(C(F)(F)F)c1)C(=O)NCc1ccc(N)nc1` [Example 418, (S)—N-[(S)-1-[(6-Amino-pyridin-3-ylmethyl)-carbamoyl]-2-(3-trifluoromethyl-phenyl)-ethyl]-2-diethylamino-propionamide] registered an IC50 of 2 nM. For `CN(CCc1ccccc1)CC(=O)N[C@@H](Cc1ccc(F)c(F)c1)C(=O)NCc1ccc(N)nc1` [Example 161, (S)—N-(6-Amino-pyridin-3-ylmethyl)-3-(3,4-difluoro-phenyl)-2-[2-(methyl-phenethyl-amino)-acetylamino]-propionamide] the value was 93.5 nM; for `CN1CCC[C@@H]1C(=O)N[C@@H](Cc1ccc(Cl)cc1)C(=O)NCc1ccc(N)nc1` [Example 93, (R)-1-Methyl-pyrrolidine-2-carboxylic acid [(S)-1-[(6-amino-pyridin-3-ylmethyl)-carbamoyl]-2-(4-chloro-phenyl)-ethyl]-amide], 0.85 nM; for `CC(C)N1CCC[C@@H]1C(=O)N[C@@H](Cc1ccc(Cl)c(Cl)c1)C(=O)NCc1ccc(N)nc1` [Example 117, (R)-1-Isopropyl-pyrrolidine-2-carboxylic acid [(S)-1-[(6-amino-pyridin-3-ylmethyl)-carbamoyl]-2-(3,4-dichloro-phenyl)-ethyl]-amide], 0.45 nM. For `COc1ccc2[nH]c(C(=O)N[C@@H](Cc3cccc(Cl)c3)C(=O)NCc3ccc(N)nc3)cc2c1` [Example 314, 5-Methoxy-1H-indole-2-carboxylic acid [(S)-1-[(6-amino-pyridin-3-ylmethyl)-carbamoyl]-2-(3-chloro-phenyl)-ethyl]-amide] the value was 15.6 nM; for `CC(C)N1CCC[C@@H]1C(=O)N[C@@H](Cc1ccc(F)c(F)c1)C(=O)NCc1ccc(N)nc1` [Example 6, (R)-1-Isopropyl-pyrrolidine-2-carboxylic acid [(S)-1-[(6-amino-pyridin-3-ylmethyl)-carbamoyl]-2-(3,4-difluoro-phenyl)-ethyl]-amide], 2 nM; for `Cc1nc(N)ccc1CNC(=O)[C@H](Cc1ccc(Cl)c(Cl)c1)NC(=O)[C@H](N)Cc1ccc(Cl)cc1` [Example 195, (R)-2-Amino-N-[(S)-1-[(6-amino-2-methyl-pyridin-3-ylmethyl)-carbamoyl]-2-(3,4-dichloro-phenyl)-ethyl]-3-(4-chloro-phenyl)-propionamide], 5.4 nM. On to `Cc1cc(C)c(C(=O)N[C@@H](Cc2ccccc2C(F)(F)F)C(=O)NCc2ccc(N)nc2)[nH]1` [Example 240, 3,5-Dimethyl-1H-pyrrole-2-carboxylic acid [(S)-1-[(6-amino-pyridin-3-ylmethyl)-carbamoyl]-2-(2-trifluoromethyl-phenyl)-ethyl]-amide], for which it took 1.5 nM to reach half-maximal inhibition (IC50). In the case of `CCN(C)[C@@H](C)C(=O)N[C@@H](CC1CCCCC1)C(=O)NCc1ccc(N)nc1` [Example 384, (S)—N-{(S)-1-[(6-Amino-pyridin-3-ylmethyl)-carbamoyl]-2-cyclohexyl-ethyl}-2-(ethyl-methyl-amino)-propionamide], half-maximal inhibition (IC50) was put at 9.7 nM. As for `CN(C)[C@@H](C(=O)N[C@@H](Cc1ccc(F)c(F)c1)C(=O)NCc1ccc(N)nc1)C(C)(C)C` [Example 179, (R)—N-[(S)-1-[(6-Amino-pyridin-3-ylmethyl)-carbamoyl]-2-(3,4-difluoro-phenyl)-ethyl]-2-dimethylamino-3,3-dimethyl-butyramide], the figure is 3.01 nM; as for `CN1CCC[C@@H]1C(=O)N[C@@H](Cc1csc2ccccc12)C(=O)NCc1ccc(N)nc1` [Example 95, (R)-1-Methyl-pyrrolidine-2-carboxylic acid {(S)-1-[(6-amino-pyridin-3-ylmethyl)-carbamoyl]-2-benzo[b]thiophen-3-yl-ethyl}-amide], 1.8 nM; as for `CN(C)CC(=O)N[C@@H](Cc1ccc(Cl)c(Cl)c1)C(=O)NCc1ccc(N)nc1` [Example 153, (S)—N-(6-Amino-pyridin-3-ylmethyl)-3-(3,4-dichloro-phenyl)-2-(2-dimethylamino-acetylamino)-propionamide], 69.9 nM.

Regarding `Nc1ccc(CNC(=O)[C@H](Cc2cccc(C(F)(F)F)c2)NC(=O)c2ccc(C(=O)O)[nH]2)cn1` [Example 275, 5-[(S)-1-[(6-Amino-pyridin-3-ylmethyl)-carbamoyl]-2-(3-trifluoromethyl-phenyl)-ethylcarbamoyl]-1H-pyrrole-2-carboxylic acid], half-maximal inhibition (IC50) required 147 nM. As for `CCC(C)[C@@H](N)C(=O)N[C@@H](Cc1cccc2ccccc12)C(=O)NCc1cnc(N)c(C)c1` (stereo partly drawn) [Example 209, (R)-2-Amino-3-methyl-pentanoic acid {(S)-1-[(6-amino-5-methyl-pyridin-3-ylmethyl)-carbamoyl]-2-naphthalen-1-yl-ethyl}-amide], the figure is 36 nM; as for `CCN(CC)[C@@H](CO)C(=O)N[C@@H](Cc1ccc(F)c(F)c1)C(=O)NCc1ccc(N)nc1` [Example 362, (S)—N-[(S)-1-[(6-Amino-pyridin-3-ylmethyl)-carbamoyl]-2-(3,4-difluoro-phenyl)-ethyl]-2-diethylamino-3-hydroxy-propionamide], 25.9 nM. `CN1CCC[C@@H]1C(=O)N[C@@H](Cc1ccccc1C(F)(F)F)C(=O)NCc1ccc(N)nc1` [Example 111, (R)-1-Methyl-pyrrolidine-2-carboxylic acid [(S)-1-[(6-amino-pyridin-3-ylmethyl)-carbamoyl]-2-(2-trifluoromethyl-phenyl)-ethyl]-amide] came in with a half-inhibitory concentration (IC50) of 15 nM. In turn, `CS(=O)(=O)N1CCC[C@@H]1C(=O)N[C@@H](Cc1ccc(Cl)c(Cl)c1)C(=O)NCc1ccc(N)nc1` [Example 210, (R)-1-Methanesulfonyl-pyrrolidine-2-carboxylic acid [(S)-1-[(6-amino-pyridin-3-ylmethyl)-carbamoyl]-2-(3,4-dichloro-phenyl)-ethyl]-amide] gave an IC50 of 39 nM.

`Nc1ccc(CNC(=O)[C@H](Cc2cccc3ccccc23)NC(=O)c2nc3ccccc3[nH]2)cn1` [Example 299, 1H-Benzoimidazole-2-carboxylic acid {(S)-1-[(6-amino-pyridin-3-ylmethyl)-carbamoyl]-2-naphthalen-1-yl-ethyl}-amide] had an IC50 of 8.1 nM. `Nc1ccc(CNC(=O)[C@H](Cc2ccc(C(F)(F)F)cc2)NC(=O)CN2CCCCC2)cn1` [Example 423, (S)—N-(6-Amino-pyridin-3-ylmethyl)-2-(2-piperidin-1-yl-acetylamino)-3-(4-trifluoromethyl-phenyl)-propionamide] had a concentration for half-maximal inhibition (IC50) of 129 nM.

With `Nc1ccc(CNC(=O)[C@H](Cc2ccc(Cl)c(Cl)c2)NC(=O)[C@H]2CCCN2Cc2ccccc2)cn1` [Example 141, (R)-1-Benzyl-pyrrolidine-2-carboxylic acid [(S)-1-[(6-amino-pyridin-3-ylmethyl)-carbamoyl]-2-(3,4-dichloro-phenyl)-ethyl]-amide], half-maximal inhibition (IC50) was put at 13.7 nM. Compound `CCC(C)[C@@H](NC)C(=O)N[C@@H](Cc1ccc(F)c(F)c1)C(=O)NCc1ccc(N)nc1` (single isomer, unassigned) [Example 53] yielded an IC50 of 11.2 nM. On to `Cc1nc(N)ccc1CNC(=O)[C@H](Cc1ccc(Cl)c(Cl)c1)NC(=O)[C@H](N)C(C)(C)C` [Example 199, (R)-2-Amino-N-[(S)-1-[(6-amino-2-methyl-pyridin-3-ylmethyl)-carbamoyl]-2-(3,4-dichloro-phenyl)-ethyl]-3,3-dimethyl-butyramide], for which the IC50 was determined as 1.4 nM.

`Cc1[nH]c(C(=O)N[C@@H](Cc2cccc(C(F)(F)F)c2)C(=O)NCc2ccc(N)nc2)c(C)c1C` [Example 230, 3,4,5-Trimethyl-1H-pyrrole-2-carboxylic acid [(S)-1-[(6-amino-pyridin-3-ylmethyl)-carbamoyl]-2-(3-trifluoromethyl-phenyl)-ethyl]-amide]: the half-maximal inhibitory concentration (IC50) worked out at 20.3 nM. In the case of `C[C@@H](C(=O)N[C@@H](Cc1ccc(F)c(F)c1)C(=O)NCc1ccc(N)nc1)N(C)CC1CCCCC1` [Example 343, (S)—N-[(S)-1-[(6-Amino-pyridin-3-ylmethyl)-carbamoyl]-2-(3,4-difluoro-phenyl)-ethyl]-2-(cyclohexylmethyl-methyl-amino)-propionamide], the IC50 came out at 91 nM. Consider `CC(C)N(C)CC(=O)N[C@@H](Cc1ccc(Cl)c(Cl)c1)C(=O)NCc1ccc(N)nc1` [Example 150, (S)—N-(6-Amino-pyridin-3-ylmethyl)-3-(3,4-dichloro-phenyl)-2-[2-(isopropyl-methyl-amino)-acetylamino]-propionamide], for which the IC50 was 12 nM. `Nc1ccc(CNC(=O)[C@H](Cc2cccc(Cl)c2)NC(=O)c2cc3ccccc3[nH]2)cn1` [Example 313, 1H-Indole-2-carboxylic acid [(S)-1-[(6-amino-pyridin-3-ylmethyl)-carbamoyl]-2-(3-chloro-phenyl)-ethyl]-amide] registered an IC50 of 8.7 nM. For `Nc1ccc(CNC(=O)[C@H](Cc2ccc(F)c(F)c2)NC(=O)CN2CCCCC2)cn1` [Example 170, (S)—N-(6-Amino-pyridin-3-ylmethyl)-3-(3,4-difluoro-phenyl)-2-(2-piperidin-1-yl-acetylamino)-propionamide] the value was 16.6 nM; for `Cc1cccc(C[C@H](NC(=O)c2[nH]ccc2C)C(=O)NCc2ccc(N)nc2)c1` [Example 268, 3-Methyl-1H-pyrrole-2-carboxylic acid {(S)-1-[(6-amino-pyridin-3-ylmethyl)-carbamoyl]-2-m-tolyl-ethyl}-amide], 7.7 nM.

With `CC(C)N(C)C(C)C(=O)NC(Cc1cccc(Cl)c1)C(=O)NCc1ccc(N)nc1` [Example 409, (S)—N-[(S)-1-[6-Amino-pyridin-3-ylmethyl)-carbamoyl]-2-(3-chloro-phenyl)-ethyl]-2-(isopropyl-methyl-amino)-propionamide], half-maximal inhibition (IC50) required 0.63 nM.
